Results as given in patent publication US10501805B2, “Methods for determining responsiveness to MEK/ERK inhibitors” (CROWN BIOSCIENCE, INC. (TAICANG), priority 2014, dated 2019).

Assays:
Assay in all cases: CellTiter-Glo cell viability, IC50 determination
Format in all cases: cell-based
PL45 = conditions: 72 h; PL45 cell line; 3-day CTG assay; read-out: Absolute IC50
Procedure: (§1) All the cells will be cultured in the media supplemented with 10% FBS except for which are marked specially, in the temperature of 37° C., 5% CO2 and 95% humidity.
(§2) Cell viability is assayed by using CellTiter-Glo® Luminescent Cell Viability Assay Kit (Cat. No.: G7572, Promega. Store at −20° C.). To prepare the CellTiter_Glo Reagent, the CellTiter-Glo Buffer was thawed and equilibrated to room temperature prior to use. For convenience the CellTiter-Glo Buffer may be thawed and stored at room temperature for up to 48 hours prior to use. The lyophilized CellTiter-Glo Substrate is equilibrated to room temperature prior to use. The appropriate volume (100 ml) of CellTiter-Glo Buffer is transferred into the amber bottle containing CellTiter-Glo Substrate to reconstitute the lyophilized enzyme/substrate mixture, which forms the CellTiter-Glo Reagent. In certain cases, the entire liquid volume of the CellTiter-Glo Buffer bottle may be added to the CellTiter-Glo Substrate vial. Mix by gently vortexing, swirling or by inverting the contents to obtain a homogeneous solution. The CellTiter-Glo Substrate should go into solution easily in less than one minute.
(§3) The day before the experiment (Day −1), cells were dissociated during the logarithmic growth period with Cell Disassociation Buffer (Gibco 13151-014) and mixed with appropriate cell media and centrifuge at 1000 rpm for 3 minutes. The cells were re-suspended and counted using Countstar before adjusting cell concentrations to optimized density (i.e. 4.44×10^4 cells/ml) with respective culture medium listed in Table 1 for 3-day CTG assay (The cell density was optimized before actual study; cell density used in the test may vary for different cell lines). 90 μl cell suspensions were added to two 96-well plates (plates A and B) with the final cell density of 4×10^3 cells/well for 3-day CTG assay (the cell density was optimized before actual study; cell density used in the test may vary for different cell lines). The plate A and B group were incubated for overnight in humidified incubator at 37° C. with 5% CO2.
(§4) On Day 0, for plate A group, 10 μl culture medium was added to each well for T0 reading. CellTiter-Glo® Reagent was added at equal volume of cell culture medium present in each well (e.g., add 100 μl of reagent to 100 μl of medium containing cells for a 96-well plate). Contents were mixed for 2 minutes on an orbital shaker to facilitate cell lysis. The plate was allowed to incubate at room temperature for 10 minutes to stabilize luminescent signal. Backseal black sticker was added to the bottom of each plate. Luminescence was recorded using EnVision Multi Label Reader. This formed the basis for T0 value.
(§5) On Day 0, the test articles and positive controls were dissolved at the concentration indicated at Test Article Dilution map. 100× solution in PBS was prepared and then diluted with appropriate culture media (1:10) into 10×working solutions. 10 μl (10×) drug solutions were dispensed in each well (triplicate for each drug concentration) of the plate B group according to plate inoculation map. The test plates were incubated for […] in the humidified incubator at 37° with 5% CO2.
(§6) On Day 3, CellTiter-Glo® Reagent was added at equal volume of cell culture medium present in each well (e.g., add 100 μl of reagent to 100 μl of medium containing cells for a 96-well plate). Contents were mixed for 2 minutes on an orbital shaker to induce cell lysis. The plate was allowed to incubate at room temperature for 10 minutes to stabilize luminescent signal. Backseal black sticker was placed to the bottom of each plate. Luminescence was recorded using EnVision Multi Label Reader.
(§7) In order to calculate IC50s, a dose-response curve was fitted using a nonlinear regression model with a sigmoidal dose response. The formula for calculating surviving rate was shown below; Absolute IC50 is calculated where Y axis set at 50% using GraphPad Prism 5.0. Software. […]

HCC4006 = conditions: Homo sapiens, 72 h; HCC4006 cell line; 3-day CTG assay; read-out: Absolute IC50
Procedure: as §1, §2, §3, §4, §5, §6, §7

HCT-8 = conditions: Homo sapiens, 72 h; HCT-8 cell line; 3-day CTG assay; read-out: Absolute IC50
Procedure: as §1, §2, §3, §4, §5, §6, §7

HCT116 = conditions: Homo sapiens, HCT-116, 72 h; HCT116 cell line; 3-day CTG assay; read-out: Absolute IC50
Procedure: as §1, §2, §3, §4, §5, §6, §7

RKO = conditions: Homo sapiens, 72 h; RKO cell line; 3-day CTG assay; read-out: Absolute IC50
Procedure: as §1, §2, §3, §4, §5, §6, §7

HT29 = conditions: Homo sapiens, HT-29, 72 h; HT29 cell line; 3-day CTG assay; read-out: Absolute IC50
Procedure: as §1, §2, §3, §4, §5, §6, §7

NCI-H1666 = conditions: Homo sapiens, 72 h; NCI-H1666 cell line; 3-day CTG assay; read-out: Absolute IC50
Procedure: as §1, §2, §3, §4, §5, §6, §7

KM12L4 = conditions: KM 12L4, 72 h; KM12L4 cell line; 3-day CTG assay; read-out: Absolute IC50
Procedure: as §1, §2, §3, §4, §5, §6, §7

MIAPaCa2 = conditions: Homo sapiens, MIA PaCa-2, 72 h; MIAPaCa2 cell line; 3-day CTG assay; read-out: Absolute IC50
Procedure: as §1, §2, §3, §4, §5, §6, §7

LoVo = conditions: Homo sapiens, 72 h; LoVo cell line; 3-day CTG assay; read-out: Absolute IC50
Procedure: as §1, §2, §3, §4, §5, §6, §7

A549 = conditions: Homo sapiens, 72 h; A549 cell line; 3-day CTG assay; read-out: Absolute IC50
Procedure: as §1, §2, §3, §4, §5, §6, §7

NCI-H358 = conditions: Homo sapiens, 72 h; NCI-H358 cell line; 3-day CTG assay; read-out: Absolute IC50
Procedure: as §1, §2, §3, §4, §5, §6, §7

HM-7 = conditions: 72 h; HM-7 cell line; 3-day CTG assay; read-out: Absolute IC50
Procedure: as §1, §2, §3, §4, §5, §6, §7

Sk-Hep-1 = conditions: Homo sapiens, SK-HEP1, 72 h; Sk-Hep-1 cell line; 3-day CTG assay; read-out: Absolute IC50
Procedure: as §1, §2, §3, §4, §5, §6, §7

`CC(=O)Nc1cccc(-n2c(=O)n(C3CC3)c(=O)c3c(Nc4ccc(I)cc4F)n(C)c(=O)c(C)c32)c1` [Trametinib, N-(3-{3-Cyclopropyl-5-[(2-fluoro-4-iodophenyl)amino]-6,8-dimethyl-2,4,7-trioxo-3,4,6,7-tetrahydropyrido[4,3-d]pyrimidin-1(2H)-yl}phenyl)acetamide] showed an IC50 (PL45) of 120 nM, an IC50 (HCC4006) of 410 nM and an IC50 (HCT-8) of 50 nM. It also gave an IC50 (HCT116) of 40 nM, an IC50 (RKO) of 6700 nM and an IC50 (HT29) of 10 nM. It also gave an IC50 (NCI-H1666) of 130 nM, an IC50 (KM12L4) of 10 nM and an IC50 (MIAPaCa2) of 30 nM. It also gave an IC50 (LoVo) of 110 nM, an IC50 (A549) of 240 nM and an IC50 (NCI-H358) of 50 nM. It also gave an IC50 (HM-7) of 390 nM and an IC50 (Sk-Hep-1) of 29100 nM.

In the case of `O=C(Nc1ccc2[nH]nc(-c3ccncc3)c2c1)[C@@H]1CCN(CC(=O)N2CCN(c3ccc(-c4ncccn4)cc3)CC2)C1` [SCH772984, (R)-1-(2-oxo-2-(4-(4-(pyrimidin-2-yl)phenyl)piperazin-1-yl)ethyl)-N-(3-(pyridin-4-yl)-1H-indazol-5-yl)pyrrolidine-3-carboxamide], the IC50 (PL45) is reported as 660 nM, the IC50 (HCC4006) is reported as 2770 nM and the IC50 (HCT-8) is reported as 1270 nM. The IC50 (HCT116) was 450 nM, the IC50 (RKO) was 17500 nM and the IC50 (HT29) was 230 nM. The IC50 (NCI-H1666) was 920 nM, the IC50 (KM12L4) was 360 nM and the IC50 (MIAPaCa2) was 210 nM. It also gave an IC50 (LoVo) of 410 nM, an IC50 (A549) of 1780 nM and an IC50 (NCI-H358) of 520 nM. It also gave an IC50 (HM-7) of 790 nM and an IC50 (Sk-Hep-1) of 5290 nM.
